In the assay the target is T1, AURKC (Aurora C) (Homo sapiens, UniProt Q9UQB9).
T1 construct: purchased Thermo Fisher Scientific (Life Technologies) SelectScreen
The assay is described as follows: SelectScreen Z'LYTE. The class given is biochemical. The procedure, abridged: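 Compound tested in SelectScreen activity assays, Z'LYTE for CSF1R, CDK1/cyclin B and MAP2K6 and Adapta for CAMK1. ATP for CAMK1 was listed as 10, and Km app was used for CSF1R. Results are expressed in percent.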

What is called inhibition is the change of the read-out against control, counted positive when it falls.

T1 sequence (Q9UQB9 whole entry): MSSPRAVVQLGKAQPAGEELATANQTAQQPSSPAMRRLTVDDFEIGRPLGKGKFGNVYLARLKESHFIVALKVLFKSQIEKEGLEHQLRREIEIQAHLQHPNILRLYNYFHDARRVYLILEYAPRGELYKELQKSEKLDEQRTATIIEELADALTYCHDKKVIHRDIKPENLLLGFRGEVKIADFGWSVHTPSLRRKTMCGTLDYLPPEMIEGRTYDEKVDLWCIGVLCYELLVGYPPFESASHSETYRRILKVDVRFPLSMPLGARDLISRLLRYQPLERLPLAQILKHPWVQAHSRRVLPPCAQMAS

In the case of `CN(C(=O)CN1CCOCC1)c1ccc2sc3c(-c4cccc5c(=O)cc(N6CC7CCC(C6)O7)oc45)cccc3c2c1` [NU5455], the inhibition at 1 µM is -5.4%.
